Data: US20100093725A1, “SEMI-SOLID FORMULATIONS OF PHOSPHOLIPASE ENZYME INHIBITORS” (Wyeth, priority 2006, published 2010)

How the values were obtained:
[1] = Solubility at room temperature in water, acid and basic conditions; assay type: physicochemical; settings: aqueous solution under acid conditions (free acid form), aqueous buffer, HPLC detection limit, read-out: intrinsic solubility of the free acid
Protocol: The solubility of 4-(3-{5-chloro-1-(diphenylmethyl)-2-[2-({[2-(trifluoromethyl)benzyl]sulfonyl}amino)ethyl]-1H-indol-3-yl}propyl)benzoic acid was measured at room temperature in water, acid and basic conditions.

[2] = system: carrageenan-induced paw edema; assay: Rat carrageenan-induced paw edema (CPE) study; assay type: in vivo
Protocol: Data from a rat carrageenan-induced paw edema (CPE) study indicated the minimum efficacious exposure of 4-(3-{5-chloro-1-(diphenylmethyl)-2-[2-({[2-(trifluoromethyl)benzyl]sulfonyl}amino) ethyl]-1H-indol-3-yl}propyl)benzoic acid was 1360 ng*hr/ml.

solubility [1]: < 0.031 µg/mL
Compound: O=C(O)c1ccc(CCCc2c(CCNS(=O)(=O)Cc3ccccc3C(F)(F)F)n(C(c3ccccc3)c3ccccc3)c3ccc(Cl)cc23)cc1 [4-(3-{5-chloro-1-(diphenylmethyl)-2-[2-({[2-(trifluoromethyl)benzyl]sulfonyl}amino)ethyl]-1H-indol-3-yl}propyl)benzoic acid]
minimum efficacious exposure [2]: 1360 ng·h/mL
